Laboratory results as given in ChEMBL document CHEMBL1123748, “Opioid agonist and antagonist activities of monofunctional nitrogen mustard analogues of beta-chlornaltrexamine” (1987).

Columns and labels:
[1] = species on record: Mus musculus; test: IC50 ratio for leucine-enkephalin rather than DADLE determined in Mouse vas deferens (MVD); format: functional
[2] = species on record: Cavia porcellus; test: Antagonist activity was determined by partial agonist activity of EK in Guinea pig ileum (GPI); format: functional
[3] = species on record: Cavia porcellus; test: Opioid agonist activity was determined as potency ratio relative to morphine in Guinea pig ileum (GPI); format: functional
[4] = species on record: Mus musculus; test: Opioid agonist activity was determined in Mouse vas deferens (MVD); format: functional
[5] = species on record: Cavia porcellus; test: Antagonist activity was determined by partial agonist activity of morphine in Guinea pig ileum (GPI); format: functional
[6] = species on record: Cavia porcellus; test: Antagonist activity was determined by partial agonist activity of morphine in Guinea pig ileum (GPI); irreversible agonist activity; format: functional, organism-based
[7] = species on record: Cavia porcellus; test: Antagonist activity was determined by partial agonist activity of EK in Guinea pig ileum (GPI); irreversible agonist activity; format: functional, organism-based

Compound | IC50 ratio [1] | IC50 ratio [2] | Potency ratio [3] | IC20 [4] | IC50 ratio [5] | IC50 ratio [6] | IC50 ratio [7]
CN(CCCl)[C@@H]1CC[C@@]2(O)C3Cc4ccc(O)c5c4C2(CCN3CC2CC2)[C@H]1O5 (stereo not given in full) | 2.9 | 17.3 | 5.3 | 10 nM | 48.8 | – | –
CN(CCCl)[C@H]1CC[C@@]2(O)C3Cc4ccc(O)c5c4C2(CCN3CC2CC2)[C@H]1O5 (stereo not given in full) | 5 | – | 159 | 3 nM | – | irreversible agonist activity | irreversible agonist activity
